Results published in patent US12662479B2 (Foghorn Therapeutics Inc., priority 2020, dated 2026).
Counter-ions that a name gives are not always drawn.

Legend:
HiBit-BRM fusion protein = biological target: T1, HiBit-BRM fusion protein (Homo sapiens, UniProt P51531); experiment: HiBiT-BRM cell-based degradation assay (Nano-Glo HiBiT Lytic Detection, 24 h); details: HeLa cells expressing HiBiT-BRM; for DC50: read-out: BRM HiBit Degradation IC50; for BRM HiBit Degradation Maximum measured: top dose 30 μM
T1 construct: expressed in transfected cells
T1 sequence (P51531 whole entry, the tested form may be a part): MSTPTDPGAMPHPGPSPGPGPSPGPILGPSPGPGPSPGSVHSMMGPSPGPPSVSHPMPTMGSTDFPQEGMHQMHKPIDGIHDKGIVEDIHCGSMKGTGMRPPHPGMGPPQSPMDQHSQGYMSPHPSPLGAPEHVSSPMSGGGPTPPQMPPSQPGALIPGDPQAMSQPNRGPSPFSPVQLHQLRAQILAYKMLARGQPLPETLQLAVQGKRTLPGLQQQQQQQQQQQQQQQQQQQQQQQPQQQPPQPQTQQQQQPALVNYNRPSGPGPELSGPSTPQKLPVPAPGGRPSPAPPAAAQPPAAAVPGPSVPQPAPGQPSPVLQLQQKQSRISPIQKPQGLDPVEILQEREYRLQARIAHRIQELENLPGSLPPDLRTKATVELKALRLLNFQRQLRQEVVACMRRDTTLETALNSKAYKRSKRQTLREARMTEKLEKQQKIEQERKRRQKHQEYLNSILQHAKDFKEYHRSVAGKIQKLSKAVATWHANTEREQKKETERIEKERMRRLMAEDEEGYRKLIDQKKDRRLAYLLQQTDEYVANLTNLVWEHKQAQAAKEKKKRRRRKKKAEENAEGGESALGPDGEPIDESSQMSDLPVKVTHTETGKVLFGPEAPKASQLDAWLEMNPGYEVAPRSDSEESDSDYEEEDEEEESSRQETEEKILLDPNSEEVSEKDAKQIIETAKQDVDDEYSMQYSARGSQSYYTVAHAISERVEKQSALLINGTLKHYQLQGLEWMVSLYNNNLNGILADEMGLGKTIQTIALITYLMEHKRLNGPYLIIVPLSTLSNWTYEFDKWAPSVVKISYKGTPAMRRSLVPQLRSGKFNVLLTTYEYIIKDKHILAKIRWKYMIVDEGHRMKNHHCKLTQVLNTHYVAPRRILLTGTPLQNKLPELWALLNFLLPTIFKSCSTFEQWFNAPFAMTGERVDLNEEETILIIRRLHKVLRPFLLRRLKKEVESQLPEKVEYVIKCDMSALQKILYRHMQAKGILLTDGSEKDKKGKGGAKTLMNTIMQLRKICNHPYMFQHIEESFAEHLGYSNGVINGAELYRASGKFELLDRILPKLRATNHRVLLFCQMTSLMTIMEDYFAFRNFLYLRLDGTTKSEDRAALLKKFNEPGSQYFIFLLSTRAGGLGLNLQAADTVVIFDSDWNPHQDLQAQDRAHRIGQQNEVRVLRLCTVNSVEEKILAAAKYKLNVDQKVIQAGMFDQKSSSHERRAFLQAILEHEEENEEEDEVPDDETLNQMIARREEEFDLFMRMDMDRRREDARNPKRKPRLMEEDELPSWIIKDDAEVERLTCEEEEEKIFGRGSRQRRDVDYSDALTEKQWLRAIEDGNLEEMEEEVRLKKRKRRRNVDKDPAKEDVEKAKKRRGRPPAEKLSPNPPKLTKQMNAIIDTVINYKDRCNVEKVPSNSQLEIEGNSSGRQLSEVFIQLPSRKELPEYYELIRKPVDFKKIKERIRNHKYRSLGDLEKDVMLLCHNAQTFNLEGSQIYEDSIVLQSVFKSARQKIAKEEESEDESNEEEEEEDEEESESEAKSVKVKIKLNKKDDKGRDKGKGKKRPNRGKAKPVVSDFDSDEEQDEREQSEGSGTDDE
Method in brief: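 Residual HiBiT-BRM in a stable HeLa line was measured by Nano-Glo lytic luminescence after 24 h compound exposure (top final dose 30 μM, 3-fold, 10 points, duplicate). Values are % degradation, scaled between DMSO-treated cells and cells given 2 μM of a known BRM/BRG1 degrader.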

[1] = biological target: T2, HiBit-BRG1 fusion protein (Homo sapiens, UniProt P51532); experiment: HiBiT-BRG1 cell-based degradation assay (Nano-Glo HiBiT Lytic Detection, 24 h); details: HeLa cells expressing HiBit-BRG1 and LgBit; for DC50: read-out: BRG1 HiBit Degradation IC50; for Dmax: HeLa, top dose 30 μM, read-out: BRG1 HiBit Degradation Maximum measured
T2 construct: expressed in transfected cells
T2 sequence (P51532 whole entry, the tested form may be a part): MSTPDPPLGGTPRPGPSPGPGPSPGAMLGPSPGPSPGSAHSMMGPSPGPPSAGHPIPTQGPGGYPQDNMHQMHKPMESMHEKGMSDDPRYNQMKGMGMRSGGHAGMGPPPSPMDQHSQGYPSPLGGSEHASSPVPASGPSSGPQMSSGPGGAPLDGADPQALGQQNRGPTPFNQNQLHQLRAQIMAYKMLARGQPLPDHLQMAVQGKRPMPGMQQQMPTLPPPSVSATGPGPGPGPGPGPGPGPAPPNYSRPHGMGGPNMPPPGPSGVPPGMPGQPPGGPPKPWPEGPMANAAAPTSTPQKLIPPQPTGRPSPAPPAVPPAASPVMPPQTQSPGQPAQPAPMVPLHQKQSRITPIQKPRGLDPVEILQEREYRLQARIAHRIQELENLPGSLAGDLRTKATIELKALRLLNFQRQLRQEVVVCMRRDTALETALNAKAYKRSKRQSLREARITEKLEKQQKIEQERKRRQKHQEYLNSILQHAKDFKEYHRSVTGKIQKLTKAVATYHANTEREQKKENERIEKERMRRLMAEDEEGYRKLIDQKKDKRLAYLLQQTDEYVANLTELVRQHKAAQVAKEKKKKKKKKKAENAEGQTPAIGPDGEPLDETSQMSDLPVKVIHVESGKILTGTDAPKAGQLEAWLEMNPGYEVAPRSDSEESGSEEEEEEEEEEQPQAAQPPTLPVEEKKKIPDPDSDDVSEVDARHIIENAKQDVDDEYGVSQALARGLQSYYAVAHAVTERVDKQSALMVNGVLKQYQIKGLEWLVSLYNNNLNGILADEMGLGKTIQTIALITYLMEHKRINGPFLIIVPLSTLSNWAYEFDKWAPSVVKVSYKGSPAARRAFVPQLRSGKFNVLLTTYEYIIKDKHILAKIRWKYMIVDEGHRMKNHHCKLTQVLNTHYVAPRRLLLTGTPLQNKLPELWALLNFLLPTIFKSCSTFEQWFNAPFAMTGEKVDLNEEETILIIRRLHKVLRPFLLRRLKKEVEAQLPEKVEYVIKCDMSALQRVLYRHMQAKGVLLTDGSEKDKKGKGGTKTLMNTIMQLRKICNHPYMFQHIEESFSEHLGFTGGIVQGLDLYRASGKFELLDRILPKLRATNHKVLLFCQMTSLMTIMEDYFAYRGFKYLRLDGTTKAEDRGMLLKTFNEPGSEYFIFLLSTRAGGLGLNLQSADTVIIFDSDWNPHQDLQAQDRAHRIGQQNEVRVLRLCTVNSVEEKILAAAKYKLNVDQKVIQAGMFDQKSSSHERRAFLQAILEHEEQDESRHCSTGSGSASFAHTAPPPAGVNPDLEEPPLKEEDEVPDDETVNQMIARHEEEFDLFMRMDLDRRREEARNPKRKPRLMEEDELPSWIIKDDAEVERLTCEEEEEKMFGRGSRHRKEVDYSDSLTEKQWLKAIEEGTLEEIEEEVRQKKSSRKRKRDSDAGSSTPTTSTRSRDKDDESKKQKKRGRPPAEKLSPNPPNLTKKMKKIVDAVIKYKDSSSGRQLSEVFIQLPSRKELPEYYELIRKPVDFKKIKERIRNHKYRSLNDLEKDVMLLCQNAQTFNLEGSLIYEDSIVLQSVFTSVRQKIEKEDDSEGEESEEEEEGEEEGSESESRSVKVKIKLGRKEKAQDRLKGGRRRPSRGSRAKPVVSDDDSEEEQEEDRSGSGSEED
Method in brief: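 Degradation is scaled from DMSO-treated cells (0%) to cells given 2 μM of a known BRM/BRG1 degrader (100%). HeLa cells stably carrying HiBiT-BRG1 plus LgBiT (5000/well) were lysed with Nano-Glo HiBiT detection reagent, shaken 10 min at RT, and luminescence read.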

| Structure (SMILES) | DC50 (HiBit-BRM fusion protein) [µM] | BRM HiBit Degradation Maximum measured (HiBit-BRM fusion protein) | DC50 [1] [µM] | Dmax [1] [%] |
| --- | --- | --- | --- | --- |
| Cc1ncsc1-c1ccc(CNC(=O)[C@@H]2C[C@@H](O)CN2C(=O)[C@@H](NC(=O)N2CC(C(=O)NCc3cccc(-c4cccc(-c5csc(NC(=O)CNC(=O)c6ccn(S(C)(=O)=O)c6)n5)c4)c3)C2)C(C)(C)C)cc1 [Compound 160, N1-[(2S)-1-[(2S,4R)-4-hydroxy-2-([[4-(4-methyl-1,3-thiazol-5-yl)phenyl]methyl]carbamoyl)pyrrolidin-1-yl]-3,3-dimethyl-1-oxobutan-2-yl]-N3-[[3-(2-[2-[(1-methanesulfonylpyrrol-3-yl)formamido]acetamido]-1,3-thiazol-4-yl)-[1,1-biphenyl]-3-yl]methyl]azetidine-1,3-dicarboxamide] | > 10 | C (‘C’ = Maximum degradation <50%) | > 10 | < 50 |
| CS(=O)(=O)n1ccc(C(=O)NCC(=O)Nc2nc(-c3cccc(-c4ccnc(C5(C(=O)NCCOc6ccc7c(c6)C(=O)N(C6CCC(=O)NC6=O)C7=O)CC5)c4)c3)cs2)c1 (stereo not shown) [Compound 161] | 0.1 to 1 | B (‘B’ = Maximum degradation ≥50% and ≤75%) | 0.1 to 1 | > 75 |
| CN(CCNc1ccc2c(c1)C(=O)N(C1CCC(=O)NC1=O)C2=O)C(=O)C1(c2cc(-c3cccc(-c4csc(NC(=O)CNC(=O)c5ccn(S(C)(=O)=O)c5)n4)c3)ccn2)CC1 (stereo not shown) [Compound 162, N-(2-[[2-(2,6-dioxopiperidin-3-yl)-1,3-dioxoisoindol-5-yl]amino]ethyl)-1-[4-[3-(2-[2-[(1-methanesulfonylpyrrol-3-yl)formamido]acetamido]-1,3-thiazol-4-yl)phenyl]pyridin-2-yl]-N-methylcyclopropane-1-carboxamide] | > 10 | C (‘C’ = Maximum degradation <50%) | > 10 | < 50 |
| Cc1ncsc1-c1ccc(CNC(=O)[C@@H]2C[C@@H](O)CN2C(=O)[C@@H](NC(=O)CN2CC3(CC(C(=O)NCc4cccc(-c5cccc(-c6csc(NC(=O)CNC(=O)c7ccn(S(C)(=O)=O)c7)n6)c5)c4)C3)C2)C(C)(C)C)cc1 [Compound 163, 2-([[(2S)-1-[(2S,4R)-4-hydroxy-2-([[4-(4-methyl-1,3-thiazol-5-yl)phenyl]methyl]carbamoyl)pyrrolidin-1-yl]-3,3-dimethyl-1-oxobutan-2-yl]carbamoyl]methyl)-N-[[3-(2-[2-[(1-methanesulfonylpyrrol-3-yl)formamido]acetamido]-1,3-thiazol-4-yl)-[1,1-biphenyl]-3-yl]methyl]-2-azaspiro[3.3]heptane-6-carboxamide] | 0.1 to 1 | B (‘B’ = Maximum degradation ≥50% and ≤75%) | > 10 | < 50 |
| Cc1ncsc1-c1ccc(CNC(=O)[C@@H]2C[C@@H](O)CN2C(=O)[C@@H](NCc2cccc(-c3cccc(-c4csc(NC(=O)CNC(=O)c5ccn(S(C)(=O)=O)c5)n4)c3)c2)C(C)(C)C)cc1 [Compound 164, (2S,4R)-4-hydroxy-1-[(2S)-2-([[3′-(2-[2-[(1-methanesulfonylpyrrol-3-yl)formamido]acetamido]-1,3-thiazol-4-yl)-[1,1′-biphenyl]-3-yl]methyl]amino)-3,3-dimethylbutanoyl]-N-[[4-(4-methyl-1,3-thiazol-5-yl)phenyl]methyl]pyrrolidine-2-carboxamide] | > 10 | C (‘C’ = Maximum degradation <50%) | > 10 | < 50 |
| CS(=O)(=O)n1ccc(C(=O)NCC(=O)Nc2nc(-c3cccc(-c4ccnc(N5CCN(c6ccc7c(c6)C(=O)N(C6CCC(=O)NC6=O)C7=O)CC5)c4)c3)cs2)c1 (stereo not shown) [Compound 165, N-[4-[3-(2-[4-[2-(2,6-dioxopiperidin-3-yl)-1,3-dioxoisoindol-5-yl]piperazin-1-yl]pyridin-4-yl)phenyl]-1,3-thiazol-2-yl]-2-[(1-methanesulfonylpyrrol-3-yl)formamido]acetamide trifluoroacetate] | > 10 | C (‘C’ = Maximum degradation <50%) | > 10 | < 50 |
| Cc1ncsc1-c1ccc(CNC(=O)[C@@H]2C[C@@H](O)CN2C(=O)[C@@H](NC(=O)CN2CC3(CN(CC(=O)NCc4cccc(-c5cccc(-c6csc(NC(=O)CNC(=O)c7ccn(S(C)(=O)=O)c7)n6)c5)c4)C3)C2)C(C)(C)C)cc1.O=C(O)C(F)(F)F [Compound 166, (2S,4R)-4-hydroxy-1-[(2S)-2-(2-[6-[([[3′-(2-[2-[(1-methanesulfonylpyrrol-3-yl)formamido]acetamido]-1,3-thiazol-4-yl)-[1,1′-biphenyl]-3-yl]methyl]carbamoyl)methyl]-2,6-diazaspiro[3.3]heptan-2-yl]acetamido)-3,3-dimethylbutanoyl]-N-[[4-(4-methyl-1,3-thiazol-5-yl)phenyl]methyl]pyrrolidine-2-carboxamide trifluoroacetate] | 0.1 to 1 | B (‘B’ = Maximum degradation ≥50% and ≤75%) | > 10 | < 50 |
| CS(=O)(=O)n1ccc(C(=O)NCC(=O)Nc2nc(-c3cccc(-c4ccnc(C5(C(=O)NCCNc6ccc7c(c6)CN(C6CCC(=O)NC6=O)C7=O)CC5)c4)c3)cs2)c1 (stereo not shown) [Compound 167, N-(2-[[2-(2,6-dioxopiperidin-3-yl)-1-oxo-3H-isoindol-5-yl]amino]ethyl)-1-[4-[3-(2-[2-[(1-methanesulfonylpyrrol-3-yl)formamido]acetamido]-1,3-thiazol-4-yl)phenyl]pyridin-2-yl]cyclopropane-1-carboxamide] | < 0.1 | A (‘A’ = Maximum degradation >75%) | < 0.1 | > 75 |
| CS(=O)(=O)n1ccc(C(=O)NCC(=O)Nc2nc(-c3cccc(-c4ccnc(C5(C(=O)NCCNc6ccc7c(c6)C(=O)N(C6CCC(=O)NC6=O)C7)CC5)c4)c3)cs2)c1 (stereo not shown) [Compound 168, N-(2-((4-(3-(2-(1-((2-((2-(2,6-dioxopiperidin-3-yl)-3-oxoisoindolin-5-yl)amino)ethyl)carbamoyl)cyclopropyl)pyridin-4-yl)phenyl)thiazol-2-yl)amino)-2-oxoethyl)-1-(methylsulfonyl)-1H-pyrrole-3-carboxamide] | < 0.1 | A (‘A’ = Maximum degradation >75%) | < 0.1 | > 75 |
| CS(=O)(=O)n1ccc(C(=O)NCC(=O)Nc2nc(-c3cccc(-c4ccnc(C5(C(=O)NCCNc6cccc7c6CN(C6CCC(=O)NC6=O)C7=O)CC5)c4)c3)cs2)c1 (stereo not shown) [Compound 169, N-(2-((4-(3-(2-(1-((2-((2-(2,6-dioxopiperidin-3-yl)-1-oxoisoindolin-4-yl)amino)ethyl)carbamoyl)cyclopropyl)pyridin-4-yl)phenyl)thiazol-2-yl)amino)-2-oxoethyl)-1-(methylsulfonyl)-1H-pyrrole-3-carboxamide] | > 10 | C (‘C’ = Maximum degradation <50%) | > 10 | < 50 |
